Experimental data from patent US20250381157A1, “ANTIMICROBIAL COMPOUNDS” (priority 2022, published 2025).
Read-outs that look alike come from different tables or passages of the source.

What was measured:
[1] = tested on: CAMP gene (encoding human cathelicidin); assay: Induction test: ProLL-37-luciferase fusion protein expression in HT-29 CampLuc MN8 reporter cell line; format: cell-based; settings: after 24h; luminescence relative to untreated cells
Protocol: FIG. 2: Induction test. […] Statistical analysis was performed by comparison of each compound-treatment conditions to the corresponding vehicle control using two-way ANOVA with Dunnett post-hoc test. Only significant changes were indicated, ** p<0.01, *** p<0.001, **** p<0.0001.
MN8CampLuc cells were handled according to Nylén et. al. with the following exception when predifferention of cells were performed before induction: […]

[2] = tested on: Enterotoxigenic Escherichia coli (ETEC) (ATCC ® 35401 ™, H10407); format: in vivo, mouse; settings: for Clinical observation (Mean Score) Hunched Posture / Clinical observation (Mean Score) Rough coat / Clinical observation (Mean Score) hyperpnea: 1 mg/kg PO q12h 9 days, 0=absent 1=present
Protocol: FIG. 3: Schematic protocol for neutropenia mouse model
A schematic of the experimental model is depicted in FIG. 3.
That experiment was performed in the presence of cyclophosphamide, which is known to cause febrile neutropenia due to translocation of bacteria to vital organs.

[3] = Rat pharmacokinetics (IV, PO); format: in vivo; settings: for half-life / bioavailability: in vivo; for bioavailability: oral
Plasma stability Rat = format: in vitro ADME
in vivo = settings: mouse, po, 7 Days PO once daily MTD - mouse
Plasma stability Mouse = format: in vitro ADME
[4] = Dose escalation toxicity and MTD in mouse
[5] = Stability SGD, SIF w. Enzymes; format: in vitro ADME
Caco-2 cells = assay: Caco-2 cell study (permeability, efflux); format: in vitro ADME; settings: for Active efflux: Caco-2
Source text: Caco-2 cells are used as a model of the intestinal epithelial barrier.

[6] = 1 mg/kg, PO, twice daily(q12h), 9 days
[7] = individual animals, 1 mg/kg, PO, twice daily(q12h), 9 days
[8] = PO, read-out: Elimination T½ (min) PO - rat
[9] = intravenous, PIV, read-out: Elimination T½ (min) PIV - rat

**Q.** With `C#CCOCC(=O)N(C)Cc1ccc(C(=O)Nc2ccccc2N)cc1` [Compound 2.1, N-(2-aminophenyl)-4-[(methyl{[(prop-2-yn-1-yl)oxy]acetyl}amino)methyl]benzamide] as the compound, how does the “expression of ProLL-37-luciferase fusion protein” value (from here on “expression”) [1] read?
**A.** induced expression

**Q.** With `CCC(=O)NCCOCC(=O)N(C)Cc1ccc(C(=O)Nc2ccccc2N)cc1` [Compound 2.2, N-(2-aminophenyl)-4-{[N-methyl-2-(2-propanamidoethoxy)acetamido]methyl}benzamide] as the compound, how does the “expression” value [1] read?
**A.** induced expression

**Q.** Which “expression” value [1] does the source give for `C#CCCCC(=O)Oc1ccc(C(=O)Nc2ccccc2N)cc1` [Compound 2.3, 4-[(2-aminophenyl)carbamoyl]phenyl hex-5-ynoate] here?
**A.** induced expression

**Q.** Which results are given for `Nc1ccccc1NC(=O)c1ccc(CNC(=O)OCc2cccnc2)cc1` [Entinostat, Pyridin-3-ylmethyl (4-((2-aminophenyl)-carbamoyl)benzyl)carbamate, reference compound]?
**A.** Body weights (Final Day) (Mean ± SD) [2, 6]: 26.5 ± 1.58; Log10 CFU/g [Mean ± SD] Blood [2, 6]: BLOQ; Log10 CFU/g [Mean ± SD] Kidneys [2, 6]: BLOQ; Log10 CFU/g [Mean ± SD] Liver [2, 6]: BLOQ; Log10 CFU/g [Mean ± SD] Spleen [2, 6]: BLOQ; Clinical observation (Mean Score) Hunched Posture ([2]; Day (0)): 0.0; Clinical observation (Mean Score) Rough coat ([2]; Day (0)): 0.0; Clinical observation (Mean Score) hyperpnea ([2]; Day (0)): 0.0; Clinical observation (Mean Score) Hunched Posture ([2]; Day (1)): 0.0; Clinical observation (Mean Score) Rough coat ([2]; Day (1)): 0.0; Clinical observation (Mean Score) hyperpnea ([2]; Day (1)): 0.0; Clinical observation (Mean Score) Hunched Posture ([2]; Day (2)): 0.0; Clinical observation (Mean Score) Rough coat ([2]; Day (2)): 0.0; Clinical observation (Mean Score) hyperpnea ([2]; Day (2)): 0.0; Clinical observation (Mean Score) Hunched Posture ([2]; Day (3)): 0.0; Clinical observation (Mean Score) Rough coat ([2]; Day (3)): 0.0; Clinical observation (Mean Score) hyperpnea ([2]; Day (3)): 0.0; Clinical observation (Mean Score) Hunched Posture ([2]; Day (4)): 0.0; Clinical observation (Mean Score) Rough coat ([2]; Day (4)): 0.0; Clinical observation (Mean Score) hyperpnea ([2]; Day (4)): 0.0; Clinical observation (Mean Score) Hunched Posture ([2]; Day (5)): 0.0; Clinical observation (Mean Score) Rough coat ([2]; Day (5)): 0.1; Clinical observation (Mean Score) hyperpnea ([2]; Day (5)): 0.0; Clinical observation (Mean Score) Hunched Posture ([2]; Day (6)): 0.0; Clinical observation (Mean Score) Rough coat ([2]; Day (6)): 0.1; Clinical observation (Mean Score) hyperpnea ([2]; Day (6)): 0.0; Clinical observation (Mean Score) Hunched Posture ([2]; Day (7)): 0.0; Clinical observation (Mean Score) Rough coat ([2]; Day (7)): 0.2; Clinical observation (Mean Score) hyperpnea ([2]; Day (7)): 0.0; Clinical observation (Mean Score) Hunched Posture ([2]; Day (−1)): 0.0; Clinical observation (Mean Score) Rough coat ([2]; Day (−1)): 0.0; Clinical observation (Mean Score) hyperpnea ([2]; Day (−1)): 0.0; Clinical observation (Mean Score) Hunched Posture ([2]; Day (−2)): 0.0; Clinical observation (Mean Score) Rough coat ([2]; Day (−2)): 0.0; Clinical observation (Mean Score) hyperpnea ([2]; Day (−2)): 0.0; Bacteria in treated animals ([2]; day 7, compound 1 at 50 mg/kg): BLOQ; Kidney -Raw data on Vancomycin (32 μg/ml) plates [2, 7]: BLOQ; Liver-Raw data on Vancomycin (32 μg/ml) plates [2, 7]: BLOQ; Spleen -Raw data on Vancomycin (32 μg/ml) plates [2, 7]: BLOQ; Blood -Raw data on Vancomycin (32 μg/ml) plates - on day 7 PI ([2]; individual animals, day 7 PI, 1 mg/kg, PO, twice daily(q12h), 9 days): BLOQ; clinical condition of animals ([2]; treated groups): apparently normal

**Q.** Which results are given for `Nc1ccccc1NC(=O)c1ccc(NC(=O)COCc2cn(CCO)nn2)cc1` [HO53]?
**A.** C_max IV - rat [3]: 21 µM; V-d IV - rat [3]: 1.7 L/kg; C_max PO - rat ([3]; PO): 0.09 µM; half-life [3, 8]: 35 min; half-life [3, 9]: 126 min; bioavailability [3]: 3%; Plasma stability Rat (Plasma stability Rat): High; MTD at 7 days (in vivo): > 50 mg/kg; Plasma stability Mouse (Plasma stability Mouse): Low; Dose Esc. Tox mouse PO [4]: >100 mg/kg; Dose Esc. Tox mouse iv [4]: >100 mg/kg; Stability SGD, SIF w. Enzymes [5]: High; Caco-2 Permeability A-B dir. (Caco-2 cells): Low; Active efflux (Caco-2 cells): Yes

**Q.** Which results are given for `Nc1ccccc1NC(=O)c1ccc(OCc2cn(CCO)nn2)cc1` [HO56]?
**A.** C_max IV - rat [3]: 26 µM; V-d IV - rat [3]: 3.07 L/kg; C_max PO - rat ([3]; PO): 1.2 µM; half-life [3, 8]: 132 min; half-life [3, 9]: 94 min; bioavailability [3]: 16%; Plasma stability Rat (Plasma stability Rat): High; MTD at 7 days (in vivo): > 50 mg/kg; Plasma stability Mouse (Plasma stability Mouse): High; Dose Esc. Tox mouse PO [4]: >200 mg/kg; Dose Esc. Tox mouse iv [4]: 10 mg/kg; Stability SGD, SIF w. Enzymes [5]: High; Caco-2 Permeability A-B dir. (Caco-2 cells): Low; Active efflux (Caco-2 cells): Yes
